Measured values taken from patent US8431593B2, “Heteroaryl amide derivatives” (H. Lundbeck A/S, priority 2006, dated 2013).

What follows are compounds tested against T1, P2X7 receptor (Homo sapiens, UniProt Q99572) (assay: P2X7 calcium mobilization assay, high throughput, antagonist activity (Example 4A)). Details: not given.
T1 construct: host or cells: SH-SY5Y
T1 sequence (Q99572 1-595): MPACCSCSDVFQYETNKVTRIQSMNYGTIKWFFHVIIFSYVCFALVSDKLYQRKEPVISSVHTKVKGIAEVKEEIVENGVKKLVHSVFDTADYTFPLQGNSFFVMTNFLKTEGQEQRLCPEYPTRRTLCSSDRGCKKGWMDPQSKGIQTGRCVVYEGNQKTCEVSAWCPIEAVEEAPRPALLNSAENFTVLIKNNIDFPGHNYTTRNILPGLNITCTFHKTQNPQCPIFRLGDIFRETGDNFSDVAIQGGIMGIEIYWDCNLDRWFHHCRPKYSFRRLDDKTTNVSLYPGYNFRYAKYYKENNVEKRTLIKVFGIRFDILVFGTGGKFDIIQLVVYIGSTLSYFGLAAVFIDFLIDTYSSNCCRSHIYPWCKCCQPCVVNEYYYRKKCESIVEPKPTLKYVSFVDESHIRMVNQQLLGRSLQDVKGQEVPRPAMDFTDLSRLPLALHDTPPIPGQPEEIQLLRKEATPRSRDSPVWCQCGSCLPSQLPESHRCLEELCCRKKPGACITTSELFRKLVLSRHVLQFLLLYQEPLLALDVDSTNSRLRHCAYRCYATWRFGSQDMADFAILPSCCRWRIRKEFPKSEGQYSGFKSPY
Assay type: cell-based
Method in brief: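 100,000 cells/well, plated day -1. Dye 1 h → rinse → compound 1 h, RT → FLIPR^TETRA Ca2+ mobilization. Max RFU minus mean negative control (no agonist); mean agonist-well max as positive control.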

| SMILES | IC50 |
| --- | --- |
| O=C(O)Cc1cn2c(C(=O)NCC34CC5CC(CC(C5)C3)C4)cccc2n1 [Compound 16, {5-[(adamantan-1-ylmethyl)carbamoyl]imi-dazo[1,2-a]pyridin-2-yl}acetic acid] | < 2000 nM |
| O=C(NCC12CC3CC(CC(C3)C1)C2)c1cccc2nc(CO)cn12 [Compound 3, N-(adamantan-1-ylmethyl)-2-(hydroxymethyl)imi-dazo[1,2-a]pyridine-5-carboxamide] | < 2000 nM |

Same assay, conditions: 50% decrease in the fluorescence response of cells exposed to 80 μM 2′(3′)-O-(4-benzoyl-benzoyl)adenosine 5′-triphosphate; Example 4A; read-out: IC50

| IC50 | SMILES |
| --- | --- |
| < 2000 nM | O=C(CC12CC3CC(CC(C3)C1)C2)Nc1cccc2nc(C(=O)NC3(CO)CCCC3)cn12 [Compound 441, 5-[(adamantan-1-ylacetyl)amino]-N-[1-(hydroxymethyl)cyclopentyl]imidazo[1,2-a]pyridine-2-carboxamide] |

Same assay, conditions: 50% decrease in the fluorescence response of cells exposed to 80 μM of 2′(3′)-O-(4-benzoyl-benzoyl)adenosine 5′-triphosphate; Example 4A; read-out: IC50

| IC50 | SMILES |
| --- | --- |
| < 2000 nM | NC1CCCN(C(=O)CCc2cn3c(C(=O)NCC45CC6CC(CC(C6)C4)C5)cccc3n2)C1 (stereo not shown) [Compound 780, N-(adamantan-1-ylmethyl)-2-[3-(3-aminopiperidin-1-yl)-3-oxopropyl] imidazo[1,2-a] pyridine-5-carboxamide] |
| < 2000 nM | CN1CCCCC1CCNC(=O)c1cn2c(C(=O)NCC34CC5CC(CC(C5)C3)C4)cccc2n1 (stereo not shown) [Compound 664, 5-N-(adamantan-1-ylmethyl)-2-N-[2-(1-methylpiperidin-2-yl)ethyl]imidazo[1,2-a]pyridine-2,5-dicarboxamide] |
| < 2000 nM | O=C(NCC12CC3CC(CC(C3)C1)C2)c1cccc2nc(CC3(C(=O)O)SCCS3)cn12 [Compound 733, 2-({5-[(adamantan-1-ylmethyl)carbamoyl]imidazo[1,2-a]pyridin-2-yl}methyl)-1,3-dithiolane-2-carboxylic acid] |
| < 2000 nM | CC1(C)C2CC[C@H](CNC(=O)c3cccc4nc(CC(=O)N5CCSCC5)cn34)C1C2 (stereo partly drawn) [Compound 795, N-{[(2S)-6,6-dimethylbicyclo[3.1.1]hept-2-yl]methyl}-2-(2-oxo-2-thiomorpholin-4-ylethyl)imidazo[1,2-a] pyridine-5-carboxamide] |
| < 2000 nM | CC(C#N)c1cn2c(C(=O)NCC34CC5CC(CC(C5)C3)C4)cccc2n1 (stereo not shown) [Compound 761, N-(adamantan-1-ylmethyl)-2-(1-cyanoethyl)imidazo [1,2-a]pyridine-5-carboxamide] |
| < 2000 nM | O=C(NCC12CC3CC(CC(C3)C1)C2)c1cccc2nc(C(=O)N3CCC(N4CCCC4)C3)cn12 (stereo not shown) [Compound 719, N-(adamantan-1-ylmethyl)-2-(1,3′-bipyrrolidin-1′-ylcarbonyl)imidazo [1,2-a]pyridine-5-carboxamide] |
| < 2000 nM | CC(C)c1ccc(CN(C)C(=O)c2cn3c(C(=O)NCC45CC6CC(CC(C6)C4)C5)cccc3n2)nc1 [Compound 716, 5-N-(adamantan-1-ylmethyl)-2-N-[(5-isopropylpyridin-2-yl)methyl]-2-N-methylimidazo[1,2-a]pyridine-2,5-dicarboxamide] |

Same assay, conditions: 50% decrease in the fluorescence response of cells exposed to 80 μM of 2′(3′)-O-(4-benzoyl-benzoyl)adenosine 5′-triphosphate; determined as in Example 4A; read-out: IC50

| IC50 | SMILES |
| --- | --- |
| < 2000 nM | O=C(NCC12CC3CC(CC(C3)C1)C2)c1cccc2nc(CC(Cc3ccccc3)C(=O)O)cn12 (stereo not shown) [Compound 1003, 3-{5-[(adamantan-1-ylmethyl)carbamoyl]imidazo[1,2-a]pyridin-2-yl}-2-benzylpropanoic acid] |
| < 2000 nM | O=C(Cc1cn2c(C(=O)NCC3CCCCC3)cccc2n1)NCC1(c2ccc(Cl)cc2)CCCCC1 [Compound 978, 2-[2-({[1-(4-chlorophenyl)cyclohexyl]methyl}amino)-2-oxoethyl]-N-(cyclohexylmethyl) imidazo[1,2-a] pyridine-5-carboxamide] |
| < 2000 nM | O=C(NCC12CC3CC(CC(C3)C1)C2)c1cccc2nc(C3(C(=O)O)CCCCC3)cn12 [Compound 851, 1-{5-[(adamantan-1-ylmethyl)carbamoyl]imidazo [1,2-a]pyridin-2-yl} cyclohexane-carboxylic acid] |
| < 2000 nM | O=C(O)Cc1nnnn1Cc1cn2c(C(=O)NCC34CC5CC(CC(C5)C3)C4)cccc2n1 [Compound 904, [1-({5-[(adamantan-1-ylmethyl)carbamoyl]imidazo[1,2-a]pyridin-2-yl}methyl)-1H-tetrazol-5-yl]acetic acid] |
| < 2000 nM | O=C(Cc1cn2c(C(=O)NCC3(c4ccc(Cl)cc4)CCOCC3)cccc2n1)NCC(F)(F)F [Compound 872, N-{[4-(4-chlorophenyl)tetrahydro-2H-pyran-4-yl]methyl}-2-{2-oxo-2-[(2,2,2-trifluoroethyl)amino]ethyl}imidazo [1,2-a]pyridine-5-carboxamide] |
| < 2000 nM | CCC(C)NC(=O)Cc1cn2c(C(=O)NCC3(c4ccc(C(F)(F)F)cc4)CCCCC3)cccc2n1 (stereo not shown) [Compound 868, 2-[2-(sec-butylamino)-2-oxoethyl]-N-({1-[4-(trifluoromethyl)phenyl]cyclohexyl}methyl) imidazo[1,2-a] pyridine-5-carboxamide] |

Same assay, conditions: SH-SY5Y cells; 50% decrease in fluorescence response to 80 μM BzATP; read-out: IC50

| IC50 | SMILES |
| --- | --- |
| < 2000 nM | Nc1nnnn1Cc1cn2c(C(=O)NCC34CC5CC(CC(C5)C3)C4)cccc2n1 [Compound 207, N-(adamantan-1-ylmethyl)-2-[(5-amino-1H-tetrazol-1-yl)methyl]imidazo[1,2-a]pyridine-5-carboxamide] |
| < 2000 nM | CC1(O)CCN(C(=O)Cc2cn3c(C(=O)NCC45CC6CC(CC(C6)C4)C5)cccc3n2)C1 (stereo not shown) [Compound 60, N-(adamantan-1-ylmethyl)-2-[2-(3-hydroxy-3-methylpyrrolidin-1-yl)-2-oxoethyl]imidazo[1,2-a]pyridine-5-carboxamide] |
| < 2000 nM | O=C(NCC12CC3CC(CC(C3)C1)C2)c1cccc2nc(CNCc3ccccn3)cn12 [Compound 68, N-(adamantan-1-ylmethyl)-2-{[(pyridin-2-ylmethyl)amino]meth-yl}imidazo[1,2-a]pyridine-5-carboxamide] |
| < 2000 nM | N[C@H]1CCN(C(=O)Cc2cn3c(C(=O)NCC45CC6CC(CC(C6)C4)C5)cccc3n2)C1 (stereo in doubt) [Compound 144, N-(adamantan-1-ylmethyl)-2-[2-(3-aminopyrrolidin-1-yl)-2-oxoethyl]imidazo[1,2-a]pyridine-5-carboxamide] |

Same assay, conditions: fluorescence response of cells exposed to 80 μM 2′(3′)-O-(4-benzoyl-benzoyl)adenosine 5′-triphosphate; Example 4A; read-out: IC50

| IC50 | SMILES |
| --- | --- |
| < 2000 nM | CC1(C)[C@H]2CC[C@@H](CNC(=O)c3cccc4nc(C(=O)N5CCCC(N)C5)cn34)[C@@H]1C2 (stereo partly drawn) [Compound 325, 2-[(3-aminopiperidin-1-yl)carbonyl]-N-{[(1S,2R,5S)-6,6-dimethylbicyclo[3.1.1]hept-2-yl]methyl}imidazo[1,2-a]pyridine-5-carboxamide] |
| < 2000 nM | CCCCN(C)C(=O)c1cn2c(NC(=O)CC34CC5CC(CC(C5)C3)C4)cccc2n1 [Compound 360, 5-[(adamantan-1-ylacetyl)amino]-N-butyl-N-methylimidazo[1,2-a]pyridine-2-carboxamide] |
| < 2000 nM | COC(=O)C1CCCN1C(=O)c1cn2c(NC(=O)CC34CC5CC(CC(C5)C3)C4)cccc2n1 (stereo not shown) [Compound 376, methyl 1-({5-[(adamantan-1-ylacetyl)amino]imidazo [1,2-a]pyridin-2-yl}carbonyl)prolinate] |
| < 2000 nM | CC1(C)[C@H]2CC[C@@H](CNC(=O)c3cccc4nc(C(=O)N5C[C@H]6CC5CN6)cn34)[C@@H]1C2 (stereo in doubt) [Compound 302, 2-[(1R,4R)-2,5-diazabicyclo[2.2.1]hept-2-ylcarbonyl]-N-{[(1S,2R,5S)-6,6-dimethylbicyclo[3.1.1]hept-2-yl]methyl}imidazo[1,2-a]pyridine-5-carboxamide] |
| < 2000 nM | O=C(O)COCc1cn2c(C(=O)NCC34CC5CC(CC(C5)C3)C4)cccc2n1 [Compound 285, ({5-[{adamantan-1-ylmethyl)carbamoyl]imidazo[1,2-a]pyridin-2-yl}methoxy)acetic acid] |
